The supplement of paper PMC10307832

How the values were obtained:
Test in all cases: relative viability (nuclei count vs DMSO), 5 days (fraction); higher = more cells survive
[1] = system: ABC-1
How it was run: (§1)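 Values are medians from duplicate plates. Each reflects relative viability, defined as the nuclei count of treated wells over that of vehicle wells. Lung cancer cell lines in 1536-well plates were pin-tool dosed one day after seeding with one drug alone or with a fixed anchor-drug dose plus five library-drug doses (not always all listed) in √10 steps, then fixed, stained and imaged at 4× after 5 days.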

[2] = system: BEN
How it was run: as §1

[3] = system: EPLC-272H
How it was run: as §1

[4] = system: HCC-827
How it was run: as §1

[5] = system: HOP-62
How it was run: as §1

[6] = system: LU99A
How it was run: as §1

[7] = system: NCI-H1355
How it was run: as §1

[8] = system: NCI-H1666
How it was run: as §1

[9] = system: NCI-H1792
How it was run: as §1

[10] = system: NCI-H1975
How it was run: as §1

[11] = system: NCI-H2170
How it was run: as §1

[12] = system: NCI-H23
How it was run: as §1

[13] = system: NCI-H2405
How it was run: as §1

[14] = system: NCI-H3122
How it was run: as §1

[15] = system: NCI-H322M
How it was run: as §1

[16] = system: NCI-H358
How it was run: as §1

[17] = system: NCI-H596
How it was run: as §1

[18] = system: NCI-H647
How it was run: as §1

[19] = system: NCI-H727
How it was run: as §1

[20] = system: NCI-H838
How it was run: as §1

[21] = system: PC-14
How it was run: as §1

[22] = system: SW 900
How it was run: as §1

CCCCCCCCCCCC1=C(O)C(=O)C=C(O)C1=O [Embelin] + NC(=O)Nc1cc(-c2cccc(F)c2)sc1C(=O)N[C@H]1CCCNC1 [AZD7762] (partner 0.2 µM)
relative viability ([1]; first compound 0.08 µM): 0.701
relative viability ([1]; first compound 0.8 µM): 1.01
relative viability ([1]; first compound 2.53 µM): 0.875
relative viability ([1]; first compound 8 µM): 0.856
relative viability ([2]; first compound 0.08 µM): 0.63
relative viability ([2]; first compound 0.8 µM): 0.765
relative viability ([2]; first compound 2.53 µM): 0.716
relative viability ([2]; first compound 8 µM): 0.542
relative viability ([3]; first compound 0.08 µM): 0.181
relative viability ([3]; first compound 0.8 µM): 0.296
relative viability ([3]; first compound 2.53 µM): 0.21
relative viability ([3]; first compound 8 µM): 0.188
relative viability ([4]; first compound 0.08 µM): 0.191
relative viability ([4]; first compound 0.8 µM): 0.21
relative viability ([4]; first compound 2.53 µM): 0.193
relative viability ([4]; first compound 8 µM): 0.278
relative viability ([5]; first compound 0.08 µM): 0.384
relative viability ([5]; first compound 0.8 µM): 0.568
relative viability ([5]; first compound 2.53 µM): 0.734
relative viability ([5]; first compound 8 µM): 0.363
relative viability ([6]; first compound 0.08 µM): 0.335
relative viability ([6]; first compound 0.8 µM): 0.4
relative viability ([6]; first compound 2.53 µM): 0.372
relative viability ([6]; first compound 8 µM): 0.233
relative viability ([7]; first compound 0.08 µM): 0.821
relative viability ([7]; first compound 0.8 µM): 0.802
relative viability ([7]; first compound 2.53 µM): 0.836
relative viability ([7]; first compound 8 µM): 0.743
relative viability ([8]; first compound 0.08 µM): 0.871
relative viability ([8]; first compound 0.8 µM): 0.885
relative viability ([8]; first compound 2.53 µM): 0.782
relative viability ([8]; first compound 8 µM): 0.922
relative viability ([9]; first compound 0.08 µM): 0.853
relative viability ([9]; first compound 0.8 µM): 0.849
relative viability ([9]; first compound 2.53 µM): 0.814
relative viability ([9]; first compound 8 µM): 0.547
relative viability ([10]; first compound 0.08 µM): 0.708
relative viability ([10]; first compound 0.8 µM): 0.753
relative viability ([10]; first compound 2.53 µM): 0.806
relative viability ([10]; first compound 8 µM): 0.703
relative viability ([11]; first compound 0.08 µM): 0.906
relative viability ([11]; first compound 0.8 µM): 0.958
relative viability ([11]; first compound 2.53 µM): 1.06
relative viability ([11]; first compound 8 µM): 0.914
relative viability ([12]; first compound 0.08 µM): 0.27
relative viability ([12]; first compound 0.8 µM): 0.297
relative viability ([12]; first compound 2.53 µM): 0.3
relative viability ([12]; first compound 8 µM): 0.248
relative viability ([13]; first compound 0.08 µM): 0.696
relative viability ([13]; first compound 0.8 µM): 0.838
relative viability ([13]; first compound 2.53 µM): 0.876
relative viability ([13]; first compound 8 µM): 0.716
relative viability ([14]; first compound 0.08 µM): 0.946
relative viability ([14]; first compound 0.8 µM): 1.06
relative viability ([14]; first compound 2.53 µM): 1.06
relative viability ([14]; first compound 8 µM): 1.01
relative viability ([15]; first compound 0.08 µM): 0.585
relative viability ([15]; first compound 0.8 µM): 0.632
relative viability ([15]; first compound 2.53 µM): 0.568
relative viability ([15]; first compound 8 µM): 0.472
relative viability ([16]; first compound 0.08 µM): 0.604
relative viability ([16]; first compound 0.8 µM): 0.739
relative viability ([16]; first compound 2.53 µM): 0.517
relative viability ([16]; first compound 8 µM): 0.491
relative viability ([17]; first compound 0.08 µM): 1.08
relative viability ([17]; first compound 0.8 µM): 1.27
relative viability ([17]; first compound 2.53 µM): 1.26
relative viability ([17]; first compound 8 µM): 1.01
relative viability ([18]; first compound 0.08 µM): 0.379
relative viability ([18]; first compound 0.8 µM): 0.674
relative viability ([18]; first compound 2.53 µM): 0.365
relative viability ([18]; first compound 8 µM): 0.309
relative viability ([19]; first compound 0.08 µM): 0.533
relative viability ([19]; first compound 0.8 µM): 0.503
relative viability ([19]; first compound 2.53 µM): 0.647
relative viability ([19]; first compound 8 µM): 0.582
relative viability ([20]; first compound 0.08 µM): 0.946
relative viability ([20]; first compound 0.8 µM): 1.05
relative viability ([20]; first compound 2.53 µM): 0.912
relative viability ([20]; first compound 8 µM): 0.992
relative viability ([21]; first compound 0.08 µM): 0.339
relative viability ([21]; first compound 0.8 µM): 0.419
relative viability ([21]; first compound 2.53 µM): 0.345
relative viability ([21]; first compound 8 µM): 0.258
relative viability ([22]; first compound 0.08 µM): 0.556
relative viability ([22]; first compound 0.8 µM): 0.624
relative viability ([22]; first compound 2.53 µM): 0.502
relative viability ([22]; first compound 8 µM): 0.628
